Here are results for seven compounds from patent US20140249135A1, “PIM KINASE INHIBITORS AND METHODS OF THEIR USE” (NOVARTIS AG, priority 2007, published 2014).

What is called IC50 is the midpoint of a concentration-inhibition curve. Broadly, the EC50 is the concentration needed to bring the measured effect to its halfway point.

Like-named read-outs stand apart in the source and are kept apart here. Where only a bound is given, the exact number is not on record here.

One assay concerns the target Pim1 kinase (Homo sapiens, UniProt P11309). Description: Pim1 ATP depletion assay.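 Further: Luciferase-luciferin luminescence readout of residual ATP after PIM1 transfers phosphate to a peptide substrate, 40 µM ATP added, reaction run to roughly half ATP consumption.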 The format is biochemical. Particulars: Pim1 ATP depletion assay; read-out: IC50 (μM) PIM1.
A further assay addresses Pim2 kinase (Homo sapiens, UniProt Q9P1W9). Description: Pim2 ATP depletion assay.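 Further: Luciferase-based luminescent readout of ATP remaining after PIM2 phosphorylates a BAD peptide, final 5 nM enzyme, 4 µM ATP, 10 µM peptide, 2.5% DMSO, run to roughly half ATP consumption.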 The format is biochemical. The settings on record: read-out: IC50 (μM) PIM2.
The target of another assay is Pim3 kinase (Homo sapiens, UniProt Q86V86). The assay is described as follows: Pim3 ATP depletion assay. The settings on record: read-out: IC50 (μM) PIM3. The class given is biochemical.
Assay [1] has as its target T1, human full length PKCE enzyme (Homo sapiens, UniProt Q02156).
T1 construct: human full length PKCE enzyme purchased from InVitrogen; purchased InVitrogen
T1 sequence (Q02156 1-737): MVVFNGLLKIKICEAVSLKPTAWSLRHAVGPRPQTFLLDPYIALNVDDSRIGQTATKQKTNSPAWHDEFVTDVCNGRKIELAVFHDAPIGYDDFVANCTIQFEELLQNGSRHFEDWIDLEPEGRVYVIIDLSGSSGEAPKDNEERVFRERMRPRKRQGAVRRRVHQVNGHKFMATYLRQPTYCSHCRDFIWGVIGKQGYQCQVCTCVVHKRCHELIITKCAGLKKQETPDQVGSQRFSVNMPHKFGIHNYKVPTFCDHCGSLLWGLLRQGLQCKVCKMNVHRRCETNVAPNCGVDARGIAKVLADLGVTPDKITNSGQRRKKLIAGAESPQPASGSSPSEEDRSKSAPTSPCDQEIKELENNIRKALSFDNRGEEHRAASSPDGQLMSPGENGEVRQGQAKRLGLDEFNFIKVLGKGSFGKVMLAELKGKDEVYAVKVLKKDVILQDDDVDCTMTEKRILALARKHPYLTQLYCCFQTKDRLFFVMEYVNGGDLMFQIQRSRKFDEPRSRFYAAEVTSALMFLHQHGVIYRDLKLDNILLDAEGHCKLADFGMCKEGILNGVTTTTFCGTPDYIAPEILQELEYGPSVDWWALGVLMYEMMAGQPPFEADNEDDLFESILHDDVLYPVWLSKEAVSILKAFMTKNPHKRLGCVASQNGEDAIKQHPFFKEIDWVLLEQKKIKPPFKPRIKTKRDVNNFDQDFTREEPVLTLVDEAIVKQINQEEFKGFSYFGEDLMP
The assay is described as follows: In vitro PKCE assay. The class given is biochemical. Particulars: 10 nM enzyme, 40 uM peptide substrate, 20 uM ATP, KinaseGlo Plus readout; read-out: PKCε IC50. In general terms: In Kinase-Glo more light means more ATP remaining.

Another assay deals with T2, Flt3 kinase (Homo sapiens, UniProt P36888).
T2 sequence (P36888 27-993): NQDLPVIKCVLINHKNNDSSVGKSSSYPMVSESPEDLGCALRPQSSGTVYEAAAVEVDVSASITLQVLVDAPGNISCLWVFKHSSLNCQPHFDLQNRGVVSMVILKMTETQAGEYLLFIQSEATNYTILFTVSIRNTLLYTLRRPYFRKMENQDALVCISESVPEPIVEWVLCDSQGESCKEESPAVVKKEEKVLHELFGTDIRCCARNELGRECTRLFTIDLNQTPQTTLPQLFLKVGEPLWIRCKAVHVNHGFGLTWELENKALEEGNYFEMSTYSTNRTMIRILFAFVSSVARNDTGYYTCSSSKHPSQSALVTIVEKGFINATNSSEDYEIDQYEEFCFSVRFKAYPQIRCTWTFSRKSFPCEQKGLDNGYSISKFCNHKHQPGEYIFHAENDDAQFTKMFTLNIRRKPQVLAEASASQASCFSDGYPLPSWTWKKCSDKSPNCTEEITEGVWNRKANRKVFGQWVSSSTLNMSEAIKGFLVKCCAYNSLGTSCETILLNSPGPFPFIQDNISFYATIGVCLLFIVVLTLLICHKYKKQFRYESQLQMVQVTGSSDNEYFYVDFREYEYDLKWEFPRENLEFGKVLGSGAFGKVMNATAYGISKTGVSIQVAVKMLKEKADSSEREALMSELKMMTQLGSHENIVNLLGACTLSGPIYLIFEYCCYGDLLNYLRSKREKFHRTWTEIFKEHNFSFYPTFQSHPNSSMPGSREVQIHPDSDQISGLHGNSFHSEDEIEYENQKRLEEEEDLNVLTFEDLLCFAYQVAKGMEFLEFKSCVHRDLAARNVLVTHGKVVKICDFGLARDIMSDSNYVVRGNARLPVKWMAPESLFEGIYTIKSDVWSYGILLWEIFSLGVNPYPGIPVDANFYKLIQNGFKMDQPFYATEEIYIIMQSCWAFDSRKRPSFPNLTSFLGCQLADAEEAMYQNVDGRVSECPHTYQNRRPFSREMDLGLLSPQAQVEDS
Description: Flt3 AlphaScreen assay. (In general: Bead proximity is the source of the signal in Alpha formats.)

In a further assay the test system is HEL 92.1.7 cells. The assay is described as follows: Cell proliferation assay (CellTiter-Glo), HEL 92.1.7. The class given is cell-based. Particulars: Homo sapiens, read-out: EC50 (μM) HEL 92.1.7. In short, it runs like this: (§1)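 Cells in RPMI1640 with 10% FBS were seeded at 1000 cells/well and exposed to compound dilutions from DMSO stocks for 3 days at 37 °C. Viability was read by CellTiter-Glo luminescence. EC50 was derived from percent inhibition relative to DMSO-only and control-compound wells.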

The test system of a further assay is MV4-11 cells. The assay is described as follows: Cell proliferation assay (CellTiter-Glo), MV4-11. The format is cell-based. Particulars: Homo sapiens. As to the method:
HEL 92.1.7 cells (ATTC No. TIB-180, an erythroleukemia line derived from malignant peripheral blood), MV4-11 cells (ATCC No. CRL-9591, a human acute monocytic leukemia line) and PC3 cells (ATCC No. CRL-1435, a human prostatic adenocarcinoma line) were cultured in RPMI1640 supplemented with 10% FBS, sodium pyruvate and antibiotics. Cells were plated in the same medium at a density of 1000 cells per well into 96 well tissue culture plates, with outside wells vacant, on the day of assay. Test compounds supplied in DMSO were diluted into DMSO at 500 times the desired final concentrations before dilution into culture media to 2 times final concentrations. Equal volumes of 2× compounds were added to the cells in 96 well plates and incubated at 37° C. for 3 days. After 3 days plates were equilibrated to room temperature and equal volume of CellTiter-Glow Reagent (Promega) was added to the culture wells. The plates were agitated briefly and luminescent signal was measured with luminometer.
On the technique in general: ATP-based viability assays read luminescence as a measure of living cells.

In another assay the test system is PC3 cells. The assay is described as follows: Cell proliferation assay (CellTiter-Glo), PC3. The class given is cell-based. Particulars: Homo sapiens, PC-3. In short, it runs like this: as §1
Another assay concerns the target KDR kinase (Homo sapiens, UniProt P35968). Description: KDR AlphaScreen assay. The settings on record: KDR IC50 (μM).
Assay [2] concerns KMS 11 (human myeloma cell line). Description: Cell proliferation assay (CellTiter-Glo), KMS 11. Particulars: KMS11 cells, read-out: EC50 (μM) KMS11. The format is cell-based. How it is done: (§2) KMS 11 (human myeloma cell line), were cultured in IMDM supplemented with 10% FBS, sodium pyruvate and antibiotics. Cells were plated in the same medium at a density of 2000 cells per well into 96 well tissue culture plates, with outside wells vacant, on the day of assay. MM1.s (human myeloma cell line), were cultured in RPMI1640 supplemented with 10% FBS, sodium pyruvate and antibiotics. Cells were plated in the same medium at a density of 5000 cells per well into 96 well tissue culture plates, with outside wells vacant, on the day of assay.
(§3) Test compounds supplied in DMSO were diluted into DMSO at 500 times the desired final concentrations before dilution into culture media to 2 times final concentrations. Equal volumes of 2× compounds were added to the cells in 96 well plates and incubated at 37° C. for 3 days.
(§4) After 3 days plates were equilibrated to room temperature and equal volume of CellTiter-Glow Reagent (Promega) was added to the culture wells. The plates were agitated briefly and luminescent signal was measured with luminometer. The percent inhibition of the signal seen in cells treated with DMSO alone vs. cells treated with control compound was calculated and used to determine EC50 values (i.e., the concentration of a test compound that is required to obtain 50% of the maximum effect in the cells) for tested compounds, as shown in Example 763.

The subject of assay [3] is MM1.s (human myeloma cell line). The assay is described as follows: Cell proliferation assay (CellTiter-Glo), MM1.s. The format is cell-based. The settings on record: MM1.s cells, read-out: EC50 (μM) MM1.s. How it is done:
as §2, §3, §4

Where [4] appears, read: cell proliferation, MV4-11 cells, read-out: EC50 (μM) MV-4-11.

Pim1 kinase, sequence (P11309 whole entry): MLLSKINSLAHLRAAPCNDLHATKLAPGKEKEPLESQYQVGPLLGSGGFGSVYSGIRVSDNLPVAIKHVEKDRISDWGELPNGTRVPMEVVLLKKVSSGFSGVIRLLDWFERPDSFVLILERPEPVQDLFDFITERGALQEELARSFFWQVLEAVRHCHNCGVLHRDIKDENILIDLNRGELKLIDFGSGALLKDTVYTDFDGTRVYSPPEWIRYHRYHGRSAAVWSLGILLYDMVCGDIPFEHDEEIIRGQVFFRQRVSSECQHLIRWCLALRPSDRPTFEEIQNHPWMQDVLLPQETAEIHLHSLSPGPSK
KDR kinase, sequence (P35968 20-1356): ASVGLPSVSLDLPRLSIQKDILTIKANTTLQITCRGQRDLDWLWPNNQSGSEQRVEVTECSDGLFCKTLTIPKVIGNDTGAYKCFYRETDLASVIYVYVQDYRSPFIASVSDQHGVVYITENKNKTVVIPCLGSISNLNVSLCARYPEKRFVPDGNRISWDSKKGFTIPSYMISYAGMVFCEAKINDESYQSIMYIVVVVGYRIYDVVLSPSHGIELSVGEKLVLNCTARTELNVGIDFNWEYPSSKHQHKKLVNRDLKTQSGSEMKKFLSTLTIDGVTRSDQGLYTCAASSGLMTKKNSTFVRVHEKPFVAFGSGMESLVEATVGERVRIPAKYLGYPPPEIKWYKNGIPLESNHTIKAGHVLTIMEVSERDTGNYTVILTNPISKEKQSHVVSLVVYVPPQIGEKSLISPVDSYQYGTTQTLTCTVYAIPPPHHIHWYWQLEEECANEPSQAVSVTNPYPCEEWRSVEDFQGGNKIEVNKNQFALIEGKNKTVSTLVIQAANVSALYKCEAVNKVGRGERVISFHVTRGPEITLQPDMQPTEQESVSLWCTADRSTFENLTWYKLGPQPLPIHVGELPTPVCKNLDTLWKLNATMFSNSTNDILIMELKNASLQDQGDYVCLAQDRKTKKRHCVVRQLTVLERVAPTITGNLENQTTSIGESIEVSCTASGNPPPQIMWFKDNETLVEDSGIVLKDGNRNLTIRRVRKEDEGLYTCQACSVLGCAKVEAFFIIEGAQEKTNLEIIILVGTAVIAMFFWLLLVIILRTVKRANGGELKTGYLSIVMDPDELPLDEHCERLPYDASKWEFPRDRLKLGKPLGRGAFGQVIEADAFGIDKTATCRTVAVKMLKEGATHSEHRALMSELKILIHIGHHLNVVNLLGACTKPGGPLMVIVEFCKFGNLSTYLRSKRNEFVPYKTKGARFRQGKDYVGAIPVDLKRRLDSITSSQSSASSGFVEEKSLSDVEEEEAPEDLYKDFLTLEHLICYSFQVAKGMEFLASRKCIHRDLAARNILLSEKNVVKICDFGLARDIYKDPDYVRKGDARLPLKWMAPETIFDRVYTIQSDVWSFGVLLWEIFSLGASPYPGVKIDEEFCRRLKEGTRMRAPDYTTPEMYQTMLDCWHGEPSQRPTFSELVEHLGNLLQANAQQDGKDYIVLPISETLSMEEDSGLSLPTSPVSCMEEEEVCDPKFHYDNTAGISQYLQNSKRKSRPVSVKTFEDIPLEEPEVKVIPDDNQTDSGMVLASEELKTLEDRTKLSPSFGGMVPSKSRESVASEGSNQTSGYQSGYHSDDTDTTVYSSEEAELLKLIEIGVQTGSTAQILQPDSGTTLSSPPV
Pim2 kinase, sequence (Q9P1W9 whole entry): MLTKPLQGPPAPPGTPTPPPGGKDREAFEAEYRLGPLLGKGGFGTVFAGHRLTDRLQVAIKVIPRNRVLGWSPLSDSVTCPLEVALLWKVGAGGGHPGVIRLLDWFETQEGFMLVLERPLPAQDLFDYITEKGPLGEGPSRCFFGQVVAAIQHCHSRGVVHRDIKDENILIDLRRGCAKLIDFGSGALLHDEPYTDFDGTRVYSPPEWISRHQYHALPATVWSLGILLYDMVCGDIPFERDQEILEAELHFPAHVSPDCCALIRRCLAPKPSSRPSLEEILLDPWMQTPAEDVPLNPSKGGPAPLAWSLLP

Take `CN(C)CCN(C)c1ccncc1NC(=O)c1nc(Br)cnc1N` [Example 124, 3-amino-6-bromo-N-(4-{[2-(dimethylamino)ethyl]-(methyl)amino}pyridin-3-yl)pyrazine-2-carboxamide]: the IC50 at Pim1 kinase is 1 to 10 µM; at Pim2 kinase, above 25 µM; on Pim3 kinase, 1 to 10 µM; in [1] it was 10000 to 25000 nM; at Flt3 kinase it was 10000 to 25000 nM.

As for `Nc1nccnc1C(=O)Nc1cnccc1N1CCCC(N)C1` (stereo not shown) [Example 187, 3-amino-N-[4-(3-aminopiperidin-1-yl)pyridin-3-yl]pyrazine-2-carboxamide], the IC50 at Pim2 kinase was below 1 µM; at Pim3 kinase, below 1 µM; in assay [1], below 1000 nM; against KDR kinase it was above 25 µM. Further, the EC50 is 1 to 5 µM in the assay with HEL 92.1.7 cells; below 1 µM with MV4-11 cells (MV4-11, read-out: EC50 (μM) MV-4-11); 1 to 5 µM in the assay with PC3 cells.

For the compound `CC(C)NC(=O)c1ccc(F)c(-c2ccc(N)c(C(=O)Nc3cnccc3N3CCC[C@H](N)C3)n2)c1` [Example 317, 3-amino-6-(2-fluoro-5-iso-propylcarbamoyl-phenyl)-pyridine-2-carboxylic acid ((S)-3-amino-3,4,5,6-tetra-hydro-2H-[1,4′]bipyridinyl-3′-yl)-amide], the IC50 at Pim1 kinase, at Pim2 kinase and at Pim3 kinase was below 1 µM in each case. Also, the EC50 was 1 to 5 µM in the assay with HEL 92.1.7 cells, above 10 µM in the assay on PC3 cells, 1 to 5 µM in assay [2] and below 1 µM in assay [3].

For the compound `CN(C)C(=O)c1ccc(F)c(-c2ccc(N)c(C(=O)Nc3cnccc3N3CCC[C@H](N)C3)n2)c1` [Example 328, 3-amino-6-(5-dimethyl-carbamoyl-2-fluoro-phenyl)-pyridine-2-carboxylic acid ((S)-3-amino-3,4,5,6-tetra-hydro-2H-[1,4′]bipyridinyl-3′-yl)-amide], the IC50 on Pim1 kinase, at Pim2 kinase and at Pim3 kinase was below 1 µM in each case. Also, the EC50 with HEL 92.1.7 cells was 1 to 5 µM; in assay [2], below 1 µM; in [3], below 1 µM.

As to `Nc1ccc(-c2c(F)cccc2F)nc1C(=O)Nc1cnccc1N1CCC[C@H](N)C1` [Example 425, 3-amino-6-(2,6-difluoro-phenyl)-pyridine-2-carboxylic acid ((S)-3-amino-3,4,5,6-tetrahydro-2H-[1,4′]bipyridinyl-3′-yl)-amide], the IC50 on Pim1 kinase was below 1 µM; on Pim2 kinase it was below 1 µM; at Pim3 kinase, below 1 µM; in [1], 1000 to 10000 nM; against KDR kinase, 10 to 25 µM. In addition, the EC50 in the assay with HEL 92.1.7 cells was below 1 µM; with PC3 cells, 5 to 10 µM; in assay [2], below 1 µM; in assay [3], below 1 µM.

As for `Nc1ccc(-c2ccccc2Cl)nc1C(=O)Nc1cnccc1N1CCC[C@H](N)C1` [Example 433, 3-amino-6-(2-chloro-phenyl)-pyridine-2-carboxylic acid ((S)-3-amino-3,4,5,6-tetrahydro-2H-[1,4′]bipyridinyl-3′-yl)-amide], the IC50 on Pim1 kinase is below 1 µM; on Pim2 kinase, below 1 µM; at Pim3 kinase it was below 1 µM; in [1] it was 1000 to 10000 nM; against KDR kinase, 10 to 25 µM. In addition, the concentration giving a half-maximal response (EC50) in the assay with HEL 92.1.7 cells is 1 to 5 µM; in the assay with MV4-11 cells (setting [4]) it was below 1 µM.

For `Nc1ccc(-c2ccccc2F)nc1C(=O)Nc1cnccc1N1CCC[C@H](N)C1` [Example 434, 3-amino-6-(2-fluoro-phenyl)-pyridine-2-carboxylic acid ((S)-3-amino-3,4,5,6-tetrahydro-2H-[1,4′]bipyridinyl-3′-yl)-amide], the EC50 was 1 to 5 µM with HEL 92.1.7 cells and below 1 µM in the assay with MV4-11 cells (setting [4]).
